In US5216183A, “Cyclopentanone/cyclopentenone derivative” (Teijin Limited, priority 1988, dated 1993):
In brackets after ≈: the same amount, converted by molar mass. Blank lines part the entries; values can stand above or below the molecule they belong to.

How the values were obtained:
L1210 tumor cells = experiment: Measurement of anticancer activity (L1210 growth, 2 days, trypan blue); format: cell-based; conditions: Mus musculus, 48 h, Table 25, L1210, 2.5×10^4 cells/ml
Procedure: Tumor cells were grown in an RPMI 1640 medium containing of 10% fetal calf serum.
The compound was dissolved in 99.5% ethanol, adjusted before use so that the final concentration of ethanol was 0.1% or less, and added to the medium.
The control was 0.1% ethanol, and L1210 tumor cells were inoculated in the medium in a concentration of 2.5×10^4 cells/ml and grown for 2 days. The number of surviving cells were measured by trypan blue staining.

L1210 cancer cells = experiment: Evaluation of antitumor activity (L1210 growth, 4 days, trypan blue); format: cell-based; conditions: Mus musculus, 96 h, Table 37, L1210, 1×10^5 cells/ml
Procedure: Cancer cells were grown in an RPMI 1640 culture medium containing 10% of fetal calf serum.
The compound to be tested was dissolved in 99.5% ethanol and was added to the medium so that the final concentration of the ethanol was 0.1% or less. As a control, 0.1% ethanol was used. L1210 cancer cells were inoculated at a concentration of 1×10^5 cells/ml in the medium and were grown for 4 days. The number of live cells was determined by trypan blue staining.

[1] = test system: human osteoblast (KK-3, 18PDL); experiment: Determination (2) of bone formation activity (KK-3, 14 days); format: cell-based; conditions: Table 39; for ALP: control 0.44 ± 0.12; for Ca: control 106 ± 12; for P: control 61 ± 10
Procedure: (§1) Human osteoblast (KK-3, 18PDL) was cultured in α-MEM containing 10% fetal bovine serum, and when a stable growth was attained, a predetermined concentration of the compound was added in the presence of 2 mM α-glycerophosphoric acid salt, followed by treatment for 14 days. The cell layer was washed with physiological salt solution and the alkali phosphatase activity then measured by absorption at OD415. Then, calcium and phosphorus were extracted with a 2N hydrochloric acid solution and quantitated.

[2] = test system: human osteoblast (KK-3, 18PDL); experiment: Determination (3) of bone formation activity (KK-3, 14 days); format: cell-based; conditions: Table 40; for ALP: control 0.72 ± 0.17; for P: control 51 ± 5; for Ca: control 90 ± 8
Procedure: as §1, with “a physioligical” for “physiological”, “Next,” for “Then,”

[3] = test system: human osteoblast (SAM-1, 12PDL); experiment: Determination (1) of bone formation activity (SAM-1, 25 days); format: cell-based; conditions: Table 38; for Ca per DNA: control 0.386 ± 0.245; for ALP per DNA: control 1.148 ± 0.050; for P per DNA: control 1.528 ± 0.316
Procedure: Human osteoblast (SAM-1, 12PDL) was cultured in α-MEM containing 10% fetal bovine serum, and when a stable growth was attained, a predetermined concentration of the compound was added in the presence of 2 mM α-glycerophosphoric acid salt, followed by treatment for 25 days. The cell layer was washed with Hank's solution and the alkali phosphatase activity then measured by absorption at OD410. Next, calcium and phosphorus were extracted with a 5% perchloric acid solution and quantitated, and DNA was extracted with 5% perchloric acid at 90° C., and the weight thereof quantitated. These evaluations were conducted according to the methods of Koshihara et al (Biochemical and Biophysical Research Communication Vol 145, No. 2, 1987, p. 651).

human osteoblasts = conditions: Koshihara et al., Biochemical Society of Japan (Preprints, 1988, p.767); cited from earlier work

- IC50 (L1210 tumor cells): 1.9 µg/mL (≈ 4.72 µM)
SMILES: CSC1=CC(CCCCOc2ccccc2)C(=CC=CC(O)CCCO)C1=O (stereo not drawn)

- IC50 (L1210 cancer cells): 4 µg/mL (≈ 9.74 µM)
SMILES: CCCCCC(O)C=CC1C=C([S+](C)[O-])C(=O)C1=CCCCCCC(=O)OC (stereo not drawn) [2-methylsulfinyl-5-(6-methoxycarbonyl-hexylidene)-4-(3-hydroxy-1-octenyl)-2-cyclopentenone]

- IC50 (L1210 cancer cells): 1 µg/mL (≈ 2.3 µM)
SMILES: C[S+]([O-])C1=CC(O)(CCCCOc2ccccc2)/C(=C\C=C\C(O)CCCO)C1=O (stereo not drawn) [2-methylsulfinyl-5-[( -- E)-4,7-dihydroxy-2-heptenylidene]-4-(4-phenoxybutyl)-4-hydroxy-2-cyclopentenone]

- IC50 (L1210 cancer cells): 0.1 µg/mL (≈ 0.24 µM)
SMILES: C[S+]([O-])C1=CC(=CCCCOc2ccccc2)/C(=C/C=C/C(O)CCCO)C1=O (stereo not drawn) [2-methylsulfinyl-5-[( -- Z)-4,7-dihydroxy-2-heptenylidene]-4-(4-phenoxybutylidene)-2-cyclopentenone]

- IC50 (L1210 cancer cells): 2 µg/mL (≈ 4.44 µM)
SMILES: CS(=O)(=O)C1=CC(O)(CCCCOc2ccccc2)/C(=C\C=C\C(O)CCCO)C1=O (stereo not drawn) [2-methylsulfonyl-5-[( -- E)-4,7-dihydroxy-2-heptenylidene]-4-(4-phenoxybutyl)-4-hydroxy-2-cyclopentenone]

SMILES: CSC1=CC(O)(CCCCOc2ccccc2)/C(=C\C=C\C(O)CCCO)C1=O (stereo not drawn) [2-methylthio-5-[( -- E)-4,7-dihydroxy-2-heptenylidene]-4-(4-phenoxybutyl)-4-hydroxy-2-cyclopentenone]
- ALP ([1]; 10^-6 M): 0.97 OD 415 nm/dish
- Ca ([1]; 10^-6 M): 168 μg/dish
- ALP ([1]; 10^-7 M): 0.56 ± 0.08 OD 415 nm/dish
- P ([1]; 10^-7 M): 64 ± 3 μg/dish
- Ca ([1]; 10^-7 M): 114 ± 4 μg/dish
- ALP ([1]; 10^-8 M): 0.24 ± 0.02 OD 415 nm/dish
- P ([1]; 10^-8 M): 47 ± 2 μg/dish
- Ca ([1]; 10^-8 M): 87 ± 6 μg/dish

SMILES: CSC1=CC(=CCCCOc2ccccc2)C(=C/C=C\C(O)CCCO)C1=O (stereo not drawn) [2-methylthio-5-[( -- Z)-4,7-dihydroxy-2-heptenylidene]-4-(4-phenoxybutylidene)-2-cyclopentenone]
- ALP ([2]; 10^-6 M): 0.94 ± 0.11 OD 415 nm/dish
- P ([2]; 10^-6 M): 60 ± 0.5 μg/dish
- Ca ([2]; 10^-6 M): 109 μg/dish
- ALP ([2]; 10^-7 M): 0.94 ± 0.07 OD 415 nm/dish
- P ([2]; 10^-7 M): 48 ± 4 μg/dish
- Ca ([2]; 10^-7 M): 85 ± 10 μg/dish

- IC50 (L1210 tumor cells): 0.78 µg/mL (≈ 1.6 µM)
SMILES: O=C1C(SC2CCCCC2)=CC(O)(CCCCOc2ccccc2)C1=CC=CC(O)CCCO (stereo not drawn) [drawing 1059]

- IC50 (L1210 tumor cells): 0.83 µg/mL (≈ 1.77 µM)
SMILES: COC(=O)COc1cccc(C=C2C(=O)C(SC)=CC2(O)CCCCOc2ccccc2)c1 (stereo not drawn) [drawing 1060]

- IC50 (L1210 tumor cells): 0.02 µg/mL (≈ 0.0344 µM)
SMILES: CCOc1ccc2nc(SC3=CC(O)(CCCCOc4ccccc4)C(=CC=CC(O)CCCO)C3=O)sc2c1 (stereo not drawn) [drawing 1061]

- IC50 (L1210 tumor cells): 0.15 µg/mL (≈ 0.31 µM)
SMILES: Cn1ccnc1SC1=CC(O)(CCCCOc2ccccc2)C(=CC=CC(O)CCCO)C1=O (stereo not drawn) [drawing 1062]

- IC50 (L1210 tumor cells): 2.3 µg/mL (≈ 4.25 µM)
SMILES: CCCCC1=C(Sc2nccn2C)C(=O)C(=CC=CC(O)CCCO)C1(O)CCCCOc1ccccc1 (stereo not drawn) [drawing 1063]

- IC50 (L1210 tumor cells): 0.1 µg/mL (≈ 0.37 µM)
SMILES: CSC1=CC(O)C(=CC=CC(O)CCCO)C1=O (stereo not drawn) [drawing 1064]

- IC50 (L1210 tumor cells): 0.32 µg/mL (≈ 0.637 µM)
SMILES: Cn1ccnc1SC1=CC(O)(CCCCOc2ccccc2)C(C(O)C=CC(O)CCCO)C1=O (stereo not drawn) [drawing 1066]

- IC50 (L1210 cancer cells): 5 µg/mL (≈ 12.7 µM)
SMILES: CCCCCC(O)C=CC1C=C(SC)C(=O)C1=CCCCCCC(=O)OC (stereo not drawn) [drawing 1097, 2-methylthio-5-(6-methoxycarbonyl-hexylidene)-4-(3-hydroxy-1-octenyl)-2-cyclopentenone]

- IC50 (L1210 cancer cells): 1.2 µg/mL (≈ 2.87 µM)
SMILES: CSC1=CC(O)(CCCCOc2ccccc2)/C(=C/C=C/C(O)CCCO)C1=O (stereo not drawn) [drawing 1101, 2-methylthio-5-[( -- Z)-4,7-dihydroxy-2-eptenylidene]-4-(4-phenoxybutyl)-4-hydroxy-2-cyclopentenone]

- IC50 (L1210 cancer cells): 1 µg/mL (≈ 2.3 µM)
SMILES: C[S+]([O-])C1=CC(O)(CCCCOc2ccccc2)/C(=C/C=C/C(O)CCCO)C1=O (stereo not drawn) [drawing 1102, 2-methylsulfinyl-5-[( -- Z)-4,7-dihydroxy-2-heptenylidene]-4-(4-phenoxybutyl)-4-hydroxy-2-cyclopentenone]

- IC50 (L1210 cancer cells): 3.5 µg/mL (≈ 8.74 µM)
SMILES: CSC1=CC(=CCCCOc2ccccc2)/C(=C/C=C/C(O)CCCO)C1=O (stereo not drawn) [drawing 1103, 2-methylthio-5-[( -- Z)-4,7-dihydroxy-2-eptenylidene]-4-(4-phenoxybutylidene)-2-cyclopentenone]

SMILES: CSC1=CC(O)(CCCCOc2ccccc2)/C(=C/C=C/C(O)CCCO)C1=O (stereo not drawn) [drawing 1105, 2-methylthio-5-[( -- Z)-4,7-dihydroxy-2-heptenylidene]-4-(4-phenoxybutyl)-4-hydroxy-2-cyclopentenone]
- Ca per DNA ([3]; 10^-6 M): 29.410 μg/μg DNA
- ALP per DNA ([3]; 10^-6 M): 1.447 OD 410 nm/μg DNA
- P per DNA ([3]; 10^-6 M): 5.743 ± 0.630 μg/μg DNA
- Ca per DNA ([3]; 10^-7 M): 8.847 ± 1.485 μg/μg DNA
- ALP per DNA ([3]; 10^-7 M): 0.333 ± 0.039 OD 410 nm/μg DNA
- P per DNA ([3]; 10^-7 M): 5.270 ± 0.144 μg/μg DNA

SMILES: CSC1=CC(O)(CCCCOc2ccccc2)/C(=C/C=C/C(O)CCCO)C1=O (stereo not drawn) [drawing 1106, 2-methylthio-5-[( -- Z)-4,7-dihydroxy-2-heptenylidene]-4-(4-phenoxybutyl)-4-hydroxy-2-cyclopentenone]
- ALP ([1]; 10^-6 M): 1.12 OD 415 nm/dish
- Ca ([1]; 10^-6 M): 168 μg/dish
- ALP ([1]; 10^-7 M): 0.48 ± 0.08 OD 415 nm/dish
- P ([1]; 10^-7 M): 63 ± 6 μg/dish
- Ca ([1]; 10^-7 M): 111 ± 9 μg/dish
- ALP ([1]; 10^-8 M): 0.28 ± 0.06 OD 415 nm/dish
- P ([1]; 10^-8 M): 47 ± 6 μg/dish
- Ca ([1]; 10^-8 M): 84 ± 10 μg/dish

SMILES: CSC1=CC(=CCCCOc2ccccc2)/C(=C/C=C/C(O)CCCO)C1=O (stereo not drawn) [drawing 1108, 2-methylthio-5-[( -- Z)-4,7-dihydroxy-2-heptenylidene]-4-(4-phenoxybutylidene)-2-cyclopentenone]
- ALP ([2]; 10^-6 M): 0.75 ± 0.17 OD 415 nm/dish
- P ([2]; 10^-6 M): 57 ± 1 μg/dish
- Ca ([2]; 10^-6 M): 105 μg/dish
- ALP ([2]; 10^-7 M): 0.69 ± 0.02 OD 415 nm/dish
- P ([2]; 10^-7 M): 60 ± 14 μg/dish
- Ca ([2]; 10^-7 M): 110 ± 30 μg/dish

SMILES: C[S+]([O-])C1=CC(O)(CCCCOc2ccccc2)/C(=C/C=C/C(O)CCCO)C1=O (stereo not drawn) [drawing 1109, 2-methylsulfinyl-5-[( -- Z)-4,7-dihydroxy-2-heptenylidene]-4-(4-phenoxybutylidene)-4-hydroxy-2-cyclopentenone]
- ALP ([2]; 10^-6 M): 0.92 ± 0.9 OD 415 nm/dish
- P ([2]; 10^-6 M): 61 ± 4 μg/dish
- Ca ([2]; 10^-6 M): 109 μg/dish
- ALP ([2]; 10^-7 M): 0.81 ± 0.11 OD 415 nm/dish
- P ([2]; 10^-7 M): 52 ± 1 μg/dish
- Ca ([2]; 10^-7 M): 89 ± 1 μg/dish

SMILES: CCCCCC(O)C=CC1C=C(SC)C(=O)C1=CCCCCCC(=O)OC (stereo not drawn) [drawing 1111, 2-methylthio-5-(6-methoxy-carbonylhexylidene)-4-(3-hydroxy-1-octenyl)-2-cyclo-pentenone]
- ALP ([2]; 10^-6 M): 0.68 ± 0.10 OD 415 nm/dish
- P ([2]; 10^-6 M): 43 ± 4 μg/dish
- Ca ([2]; 10^-6 M): 79 μg/dish
- ALP ([2]; 10^-7 M): 0.73 ± 0.02 OD 415 nm/dish
- P ([2]; 10^-7 M): 46 ± 2 μg/dish
- Ca ([2]; 10^-7 M): 78 ± 4 μg/dish

SMILES: CCCCC[C@H](O)/C=C/[C@H]1C(=O)C[C@H](O)[C@@H]1C/C=C\CCCC(=O)O [prostaglandin D2]
- calcification by human osteoblasts (human osteoblasts): accelerated
